The source made the active and inactive calls. The rule behind the calls is not given here.
How the values were obtained:
Pseudomonas aeruginosa [1] = assay: Bactericidal activity against Pseudomonas aeruginosa ATCC 27853; type: functional, organism-based
Candida albicans [2] = assay: Antifungal activity against Candida albicans MTCC 227 at 70 ug/ml by paper disk diffusion method; type: functional; conditions: read-out: DIZ
Escherichia coli [3] = assay: Antibacterial activity against Escherichia coli ATCC 8793 at 50 ug/ml after 24 hr by paper disk diffusion method; type: functional; conditions: ATCC 8793, 24 h, read-out: DIZ
Staphylococcus aureus [4] = assay: Antibacterial activity against Staphylococcus aureus ATCC 25923 at 30 ug/ml after 24 hr by paper disk diffusion method; type: functional; conditions: ATCC 25923, 24 h, read-out: DIZ
Aspergillus niger [5] = assay: Fungicidal activity against Aspergillus niger MTCC 3323; type: functional, organism-based
Fusarium oxysporum [6] = assay: Antifungal activity against Fusarium oxysporum MTCC 2087 at 50 ug/ml by paper disk diffusion method; type: functional; conditions: read-out: DIZ
Fusarium oxysporum [7] = assay: Antifungal activity against Fusarium oxysporum MTCC 2087 at 70 ug/ml by paper disk diffusion method; type: functional; conditions: read-out: DIZ
Staphylococcus aureus [8] = assay: Antibacterial activity against Staphylococcus aureus ATCC 25923 at 50 ug/ml after 24 hr by paper disk diffusion method; type: functional; conditions: ATCC 25923, 24 h, read-out: DIZ
Bacillus subtilis [9] = assay: Antibacterial activity against Bacillus subtilis ATCC 6633 at 70 ug/ml after 24 hr by paper disk diffusion method; type: functional; conditions: ATCC 6633, 24 h, read-out: DIZ
Pseudomonas aeruginosa [10] = assay: Antibacterial activity against Pseudomonas aeruginosa ATCC 27853 at 30 ug/ml after 24 hr by paper disk diffusion method; type: functional; conditions: ATCC 27853, 24 h, read-out: DIZ
Candida albicans [11] = assay: Fungicidal activity against Candida albicans MTCC 227; type: functional, organism-based
Candida albicans [12] = assay: Antifungal activity against Candida albicans MTCC 227 at 50 ug/ml by paper disk diffusion method; type: functional; conditions: read-out: DIZ
Aspergillus niger [13] = assay: Antifungal activity against Aspergillus niger MTCC 3323 at 70 ug/ml by paper disk diffusion method; type: functional; conditions: read-out: DIZ
Fusarium oxysporum [14] = assay: Fungicidal activity against Fusarium oxysporum MTCC 2087; type: functional, organism-based
Pseudomonas aeruginosa [15] = assay: Antibacterial activity against Pseudomonas aeruginosa ATCC 27853 at 70 ug/ml after 24 hr by paper disk diffusion method; type: functional; conditions: ATCC 27853, 24 h, read-out: DIZ
Bacillus subtilis [16] = assay: Bactericidal against Bacillus subtilis ATCC 6633; type: functional, organism-based
Fusarium oxysporum [17] = assay: Antifungal activity against Fusarium oxysporum MTCC 2087 at 30 ug/ml by paper disk diffusion method; type: functional; conditions: read-out: DIZ
Escherichia coli [18] = assay: Antibacterial activity against Escherichia coli ATCC 8793 at 30 ug/ml after 24 hr by paper disk diffusion method; type: functional; conditions: ATCC 8793, 24 h, read-out: DIZ
Bacillus subtilis [19] = assay: Antibacterial activity against Bacillus subtilis ATCC 6633 at 30 ug/ml after 24 hr by paper disk diffusion method; type: functional; conditions: ATCC 6633, 24 h, read-out: DIZ
Staphylococcus aureus [20] = assay: Bactericidal activity against Staphylococcus aureus ATCC 25923; type: functional, organism-based
Aspergillus niger [21] = assay: Antifungal activity against Aspergillus niger MTCC 3323 at 30 ug/ml by paper disk diffusion method; type: functional; conditions: read-out: DIZ
Pseudomonas aeruginosa [22] = assay: Antibacterial activity against Pseudomonas aeruginosa ATCC 27853 at 50 ug/ml after 24 hr by paper disk diffusion method; type: functional; conditions: ATCC 27853, 24 h, read-out: DIZ
Bacillus subtilis [23] = assay: Antibacterial activity against Bacillus subtilis ATCC 6633 at 50 ug/ml after 24 hr by paper disk diffusion method; type: functional; conditions: ATCC 6633, 24 h, read-out: DIZ
Escherichia coli [24] = assay: Antibacterial activity against Escherichia coli ATCC 8793 at 70 ug/ml after 24 hr by paper disk diffusion method; type: functional; conditions: ATCC 8793, 24 h, read-out: DIZ
Escherichia coli [25] = assay: Bactericidal activity against Escherichia coli ATCC 8793; type: functional, organism-based
Candida albicans [26] = assay: Antifungal activity against Candida albicans MTCC 227 at 30 ug/ml by paper disk diffusion method; type: functional; conditions: read-out: DIZ
Aspergillus niger [27] = assay: Antifungal activity against Aspergillus niger MTCC 3323 at 50 ug/ml by paper disk diffusion method; type: functional; conditions: read-out: DIZ
Staphylococcus aureus [28] = assay: Antibacterial activity against Staphylococcus aureus ATCC 25923 at 70 ug/ml after 24 hr by paper disk diffusion method; type: functional; conditions: ATCC 25923, 24 h, read-out: DIZ

Row | Structure (SMILES) | Activity (Pseudomonas aeruginosa [1]) | zone of inhibition at 70 µg/mL (Candida albicans [2]) [mm] | zone of inhibition at 50 µg/mL (Escherichia coli [3]) [mm] | zone of inhibition at 30 µg/mL (Staphylococcus aureus [4]) [mm] | Activity (Aspergillus niger [5]) | zone of inhibition at 50 µg/mL (Fusarium oxysporum [6]) [mm] | zone of inhibition at 70 µg/mL (Fusarium oxysporum [7]) [mm] | zone of inhibition at 50 µg/mL (Staphylococcus aureus [8]) [mm] | zone of inhibition at 70 µg/mL (Bacillus subtilis [9]) [mm] | zone of inhibition at 30 µg/mL (Pseudomonas aeruginosa [10]) [mm] | Activity (Candida albicans [11]) | zone of inhibition at 50 µg/mL (Candida albicans [12]) [mm] | zone of inhibition at 70 µg/mL (Aspergillus niger [13]) [mm] | Activity (Fusarium oxysporum [14]) | zone of inhibition at 70 µg/mL (Pseudomonas aeruginosa [15]) [mm] | Activity (Bacillus subtilis [16]) | zone of inhibition at 30 µg/mL (Fusarium oxysporum [17]) [mm] | zone of inhibition at 30 µg/mL (Escherichia coli [18]) [mm] | zone of inhibition at 30 µg/mL (Bacillus subtilis [19]) [mm] | Activity (Staphylococcus aureus [20]) | also measured
1 | CCN(CC)CC(=O)Nn1c(S)nnc1-c1ccc(OC)cc1 | Active | 10.4 | 10.1 | 7.63 | inactive | 8.21 | 9.06 | 8.33 | 9.03 | 8.26 | inactive | 9.13 | 11.1 | inactive | 10.8 | Active | 7.26 | 9.2 | 7.23 | Active | zone of inhibition at 30 µg/mL (Aspergillus niger [21]): 9.13 mm; zone of inhibition at 50 µg/mL (Pseudomonas aeruginosa [22]): 9.56 mm; zone of inhibition at 50 µg/mL (Bacillus subtilis [23]): 8.53 mm; zone of inhibition at 70 µg/mL (Escherichia coli [24]): 11.2 mm; Activity (Escherichia coli [25]): Active; zone of inhibition at 30 µg/mL (Candida albicans [26]): 8.1 mm; zone of inhibition at 50 µg/mL (Aspergillus niger [27]): 10.2 mm; zone of inhibition at 70 µg/mL (Staphylococcus aureus [28]): 9.36 mm
2 | CCCN(CCC)CC(=O)Nn1c(S)nnc1-c1ccc(C)cc1 | Active | 11.3 | 10.3 | 8.2 | Active | 8.4 | 9.96 | 9.33 | 10.1 | 9.56 | Active | 10.5 | 14.4 | Active | 11.1 | Active | 7.26 | 9.33 | 8.93 | Active | zone of inhibition at 30 µg/mL (Aspergillus niger [21]): 11.2 mm; zone of inhibition at 50 µg/mL (Pseudomonas aeruginosa [22]): 10.2 mm; zone of inhibition at 50 µg/mL (Bacillus subtilis [23]): 9.86 mm; zone of inhibition at 70 µg/mL (Escherichia coli [24]): 11.1 mm; Activity (Escherichia coli [25]): Active; zone of inhibition at 30 µg/mL (Candida albicans [26]): 9.13 mm; zone of inhibition at 50 µg/mL (Aspergillus niger [27]): 12.3 mm; zone of inhibition at 70 µg/mL (Staphylococcus aureus [28]): 10 mm
3 | CCCCN(CCCC)CC(=O)Nn1c(S)nnc1-c1ccc(OC)cc1 | Active | 20.4 | 15.1 | 13.1 | Active | 14.3 | 16.2 | 15.2 | 15.2 | 15.1 | Active | 18.3 | 22.4 | Active | 18.2 | Active | 13.1 | 13 | 11.2 | Active | zone of inhibition at 30 µg/mL (Aspergillus niger [21]): 18.1 mm; zone of inhibition at 50 µg/mL (Pseudomonas aeruginosa [22]): 16.2 mm; zone of inhibition at 50 µg/mL (Bacillus subtilis [23]): 13 mm; zone of inhibition at 70 µg/mL (Escherichia coli [24]): 17.3 mm; Activity (Escherichia coli [25]): Active; zone of inhibition at 30 µg/mL (Candida albicans [26]): 16.1 mm; zone of inhibition at 50 µg/mL (Aspergillus niger [27]): 20.1 mm; zone of inhibition at 70 µg/mL (Staphylococcus aureus [28]): 17.2 mm
4 | CCN(CC)CC(=O)Nn1c(S)nnc1-c1ccc(C)cc1 | Active | 9.23 | 8.4 | 6.36 | inactive | 6.23 | 7.33 | 7.4 | 8.26 | 7.3 | inactive | 8.7 | 10.2 | inactive | 9 | Active | 6.03 | 7.3 | 6.4 | Active | zone of inhibition at 30 µg/mL (Aspergillus niger [21]): 8.2 mm; zone of inhibition at 50 µg/mL (Pseudomonas aeruginosa [22]): 8.4 mm; zone of inhibition at 50 µg/mL (Bacillus subtilis [23]): 7.43 mm; zone of inhibition at 70 µg/mL (Escherichia coli [24]): 9 mm; Activity (Escherichia coli [25]): Active; zone of inhibition at 30 µg/mL (Candida albicans [26]): 7.13 mm; zone of inhibition at 50 µg/mL (Aspergillus niger [27]): 9.23 mm; zone of inhibition at 70 µg/mL (Staphylococcus aureus [28]): 8.2 mm
5 | CCCCCN(CCCCC)CC(=O)Nn1c(S)nnc1-c1ccc(C)cc1 | Active | 9.23 | 7.16 | 6.03 | inactive | 8.23 | 9.13 | 7.1 | 8.23 | 7.13 | inactive | 8.1 | 12.1 | inactive | 9.17 | Active | 7.07 | 6.26 | 6.46 | Active | zone of inhibition at 30 µg/mL (Aspergillus niger [21]): 9.06 mm; zone of inhibition at 50 µg/mL (Pseudomonas aeruginosa [22]): 8.13 mm; zone of inhibition at 50 µg/mL (Bacillus subtilis [23]): 7.2 mm; zone of inhibition at 70 µg/mL (Escherichia coli [24]): 8.13 mm; Activity (Escherichia coli [25]): Active; zone of inhibition at 30 µg/mL (Candida albicans [26]): 7.26 mm; zone of inhibition at 50 µg/mL (Aspergillus niger [27]): 11.3 mm; zone of inhibition at 70 µg/mL (Staphylococcus aureus [28]): 8.16 mm
6 | COc1ccc(-c2nnc(S)n2NC(=O)CN(C(C)C)C(C)C)cc1 | Active | 13.8 | 10.3 | 8.2 | inactive | 8.13 | 9.06 | 9.26 | 10.5 | 11.1 | inactive | 12.1 | 13 | inactive | 13.3 | Active | 7.26 | 9.43 | 8.5 | Active | zone of inhibition at 30 µg/mL (Aspergillus niger [21]): 10.1 mm; zone of inhibition at 50 µg/mL (Pseudomonas aeruginosa [22]): 12.3 mm; zone of inhibition at 50 µg/mL (Bacillus subtilis [23]): 9.3 mm; zone of inhibition at 70 µg/mL (Escherichia coli [24]): 12.4 mm; Activity (Escherichia coli [25]): Active; zone of inhibition at 30 µg/mL (Candida albicans [26]): 11.2 mm; zone of inhibition at 50 µg/mL (Aspergillus niger [27]): 11.3 mm; zone of inhibition at 70 µg/mL (Staphylococcus aureus [28]): 10.3 mm

— ChEMBL document CHEMBL3045810, “Synthesis and evaluation of 4-(substituted)-acetylamino-3-mercapto-5-(4-substituted) phenyl-1,2,4-triazole derivatives as antimicrobial agents” (2012)
